Source: patent publication US10351871B2, “Desaturases and methods of using them for synthesis of polyunsaturated fatty acids” (Washington State University, priority 1998, dated 2019)

Target: T1, Δ^5-desaturase (Caenorhabditis elegans, UniProt G5EG11)
T1 construct: expressed in transfected cells; host or cells: Arabidopsis plants (seed) doubly transformed with Δ8 and Δ5 constructs
T1 sequence (G5EG11 1-447): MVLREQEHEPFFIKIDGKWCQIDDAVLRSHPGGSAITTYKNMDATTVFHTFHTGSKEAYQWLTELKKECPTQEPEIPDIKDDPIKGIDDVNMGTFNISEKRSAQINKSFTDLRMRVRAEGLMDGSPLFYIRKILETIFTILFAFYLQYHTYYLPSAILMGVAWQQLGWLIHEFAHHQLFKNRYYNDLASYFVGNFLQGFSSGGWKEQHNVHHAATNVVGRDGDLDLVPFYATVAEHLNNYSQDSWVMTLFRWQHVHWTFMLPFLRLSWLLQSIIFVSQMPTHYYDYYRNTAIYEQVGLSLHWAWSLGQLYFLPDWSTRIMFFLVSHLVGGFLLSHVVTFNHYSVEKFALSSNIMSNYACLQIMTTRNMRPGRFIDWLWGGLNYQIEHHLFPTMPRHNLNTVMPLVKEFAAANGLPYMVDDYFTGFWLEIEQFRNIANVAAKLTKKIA
Test: Arabidopsis plants doubly transformed with both desaturases, seed fatty acid methyl ester analysis
Type: in vivo
Conditions: seed from plants doubly transformed with both desaturases
Description: For example, the expression of the Δ^5- and Δ^8-desaturases in a plant, such as Arabidopsis, can be achieved by constructing a plant transformation vector to introduce the cDNA of each desaturase into the plant. The vector can contain a tissue specific promoter so that the desaturase protein will be expressed during seed development. Examples of seed specific promoters include that for phaseolin (van der Geest and Hall, Plant Mol. Biol. 32:579-88, 1996) or the promoter for napin (Stalberg et al., Plant Mol. Biol. 23: 671-83, 1993). Other seed-specific promoters that can be used are those located on the genomic BAC clone T24A18 (LOCUS ATT24A18. (1999) 45980 bp Arabidopsis thaliana DNA chromosome 4, ACCESSION # AL035680, NID g4490701) of the Arabidopsis genome. […] Transformation of Arabidopsis is readily achieved using the Agrobacterium-mediated vacuum infiltration process (Katavic et al., Mol. Gen. Genet. 245:363-70, 1994) or the floral dip modification of it (Clough and Bent, Plant J. 16:735-43, 1998), although several other methods are also commonly used. […] Since the Δ^8 and Δ^5 constructs use different selectable markers the double transformants are readily isolated. […] The seeds of transformed plants are analyzed by isolation of fatty acid methyl esters followed by gas chromatography to determine the fatty acid composition.

CCCCCCCCC=CCC=CCCCCCCC(=O)O [20:Δ^8,11]
conversion to 20:3Δ^5,8,11 in seed: convert
